Assay results from patent US10584127B2, “3,3-difluoropiperidine carbamate heterocyclic compounds as NR2B NMDA receptor antagonists” (Rugen Holdings (Cayman) Limited, priority 2015, dated 2020).

Assays:
[1] = test system: NMDA receptor (all subtypes), native rat brain receptors; test: [3H] MK-801 radioligand binding assay, rat brain membranes; conditions: 2 nM [3H] MK-801, rat brain membranes
Procedure: This example describes NMDA receptor binding assays using two different radioligands, [^3H] […] An established binding assay using the non-selective NMDA receptor ligand [^3H] […] The binding assay method using the NR2B selective receptor ligand [^3H] […] This assay serves as a selective measure of NR2B receptor binding activity in native rat brain receptors. Briefly, the brains of Male Wistar rats were homogenized (Polytron) before centrifugation at 40,000×g for 15 minutes at 4° C. After 2 washes, the final pellet was homogenized and stored at −80° C. The protein concentration was determined by Bradford assay.
Test compounds were solubilized at 10 mM in DMSO. Then the dilutions were performed with a constant solvent concentration (1% DMSO) in the assay.
After incubation for 4.5 h at room temperature, the assays were filtered on GF/B filters pretreated with 0.3% (v/v) PEI with a Brandel system for [^3H] […] The experiment was performed in duplicate (n=2).

CYP2D6 = CYP2D6 (Homo sapiens (Human), UniProt P10635); test: CYP P450 enzyme inhibition, pooled human liver microsome; type: in vitro ADME; conditions: HLM, dextromethorphan 5 μM
Procedure: Those CYP isoforms and their corresponding probe substrates are as follows: CYP1A2 (phenacetin, 30 μM), CYP2C9 (tolutamide, 100 μM), CYP2C19 (S-mephenytoin, 40 μM), CYP2D6 (dextromethorphan, 5 μM) and CYP3A4 (midazolam, 1 μM). All probe substrates were used at concentrations near or below their Kms. For experiment, a reaction mixture of test compound at 10 μM or in serial dilution, CYP probe substrate described above and 0.2 mg/mL pooled HLM in phosphate buffer, pH 7.4 in a final volume of 200 μL was pre-incubated at 37° C. for 10 minutes in triplicate. The reaction was initiated by addition of NADPH at final concentration of 1 mM. The reaction was terminated after 10 minutes (CYP1A2, CYP2D6 and CYP3A4) or 30 minutes (CYP2C9 and CYP2C19) by addition of 100 μL ice-cold acetonitrile with internal standard (IS). The samples were then centrifuged at 13,000 rpm and the supernatants were injected to LC-MS/MS (Agilent Technologies) to quantify the concentration of the specific metabolites of the probe substrates formed by individual CYP450 isoforms. The inhibition ratio is calculated as: (Mt−M0)/Mwater×100% in which Mt and M0 represent the concentrations of the specific probe substrate metabolite, which was formed by individual CYP450 isoform, at the beginning and end of the reaction in the presence of test compound; while Mwater represents the concentration of the specific metabolite at the end of the reaction in the absence of test compound. Test compound concentration-dependent response data experiments performed in triplicate.

[2] = test system: pentylenetetrazole-induced convulsions; test: Pentylenetetrazole (PTZ) Seizure Test; type: in vivo, rats; conditions: 10 mg/kg p.o., mesylate salt, PTZ 100 mg/kg s.c.
Procedure: Rats, placed in individual macrolon cages (25×19×13 cm), were injected with pentylenetetrazole (PTZ) (100 mg/kg s.c.). The occurrence and latency of clonic and tonic convulsions and death were noted over a 30 minute period. 15 rats were studied per group. The test was performed blind.
Test compound E1-8.2 was administered as the free base.
Compounds were evaluated typically using 0.5% dimethylsulfoxide, 4% hydroxypropyl-b-cyclodextrin water as a vehicle at 1 or more doses (e.g., 1, 3 and 10 mg/kg), administered p.o. 30 minutes before PTZ, and compared with a vehicle control group. Diazepam (16 mg/kg p.o.), administered 60 minutes before PTZ, was used as reference substance. The experiment was performed over 2 separate sub-experiments with N=7 to 8 animals per group and per sub-experiment. Quantitative data (latencies) with the test substance was analyzed by comparing treated groups with vehicle control using Kruskal-Wallis test followed by Mann-Whitney U test. Quantitative data with the reference substance was analyzed using Mann-Whitney U test. Quantal data (frequencies) was analyzed by comparing treated groups with vehicle control using Fisher's Exact Probability tests (*=p<0.05; **=p<0.01; ***=p<0.001).

Chain of CYP2D6 (P10635 whole entry): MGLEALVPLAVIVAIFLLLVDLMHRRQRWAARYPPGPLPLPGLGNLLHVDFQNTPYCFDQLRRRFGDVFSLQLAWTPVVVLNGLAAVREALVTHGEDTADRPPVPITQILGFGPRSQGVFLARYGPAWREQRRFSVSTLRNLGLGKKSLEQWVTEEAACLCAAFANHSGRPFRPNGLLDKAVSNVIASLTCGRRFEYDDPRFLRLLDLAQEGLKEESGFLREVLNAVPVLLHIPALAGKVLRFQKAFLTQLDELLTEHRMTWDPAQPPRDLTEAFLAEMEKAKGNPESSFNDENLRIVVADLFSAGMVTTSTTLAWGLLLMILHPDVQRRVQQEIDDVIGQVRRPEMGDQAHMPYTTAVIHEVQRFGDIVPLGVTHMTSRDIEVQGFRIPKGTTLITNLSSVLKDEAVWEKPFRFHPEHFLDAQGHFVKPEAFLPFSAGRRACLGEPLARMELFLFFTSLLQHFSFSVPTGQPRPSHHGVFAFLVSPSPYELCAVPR

## Cc1ccc(COC(=O)N2CC[C@H](CNc3nccn4cnnc34)C(F)(F)C2)cc1 [Compound E1-1.2, (+)-R-4-methylbenzyl 4-(([1,2,4]triazolo[4,3-a]pyrazin-8-ylamino)methyl)-3,3-difluoropiperidine-1-carboxylate]
[1]
  partial effect on [3H] MK-801 binding: 40%
CYP2D6
  CYP2D6 @ 10 μM (%): 14%
[2]
  latency to death, change vs vehicle controls: +35%
  number of deaths, change vs vehicle controls: −91%
